One test addresses T1, Aβ oligomers (Homo sapiens, UniProt P05067).
T1 construct: is a 42 amino acid proteolytic product from the amyloid precursor protein; purchased Invitrogen
Description: Dot blot assay of Aβ oligomer inhibition (A11 antibody). It is filed as biochemical. The following applies: Aβ 10 μM, NMIs 20 μM, 4° C., 24 h. As for the experimental part:
Aggregation modulation by toxic Aβ aggregates were assessed and were quantified by dot blot assay. Aβ peptide (10 μM) was dissolved in phosphate buffered saline (PBS, 10 mM, pH 7.4), incubated alone and with NMIs (20 μM) at 37° C. for 48 h. For concentration dependent inhibition, 10 μM Aβ peptide was incubated with 1, 2, 5, 10 and 20 μM of NMIs and incubated. Samples for oligomer inhibition studies were prepared by incubating Aβ alone and with NMIs at 4° C. for 24 and subjected to dot blot analysis. For dissolution studies, Aβ peptide alone was incubated in PBS for 48 h to prepare fibrils and then incubated with NMIs further for 48 h. For dot blot experiment, 5 μL of sample was blotted on activated PVDF (polyvinylidene fluoride) membrane in triplicates and air dried. The membrane was blocked with skimmed milk powder for 1 h at room temperature. The blot paper was washed with tris-buffered saline with 0.01% Tween 20 (TBST) three times for 5 min. Blot paper was treated with fibril specific OC primary antibody (Rabbit, 1:1000 dilution) overnight at 4° C. For oligomers blot A11 anti-oligomer antibody (Rabbit 1:1000) was used. […] Blots were analyzed and quantified by ImageJ software. […] The ability of NMIs (M3) to inhibit the formation of Aβ oligomers was assessed by dot blot assay. […]

A further test relates to C6 microglial cells. Nature of the test: Bio-AFM study of microglial activation. It is filed as cell-based. Particulars: Aβ 5 μM, compound 10 μM. The procedure:
Microglia activation and its alleviation was studied by Bio-AFM technique combining the indirect immunofluorescence by confocal microscopy and cellular mechanical properties characterization by AFM. C6 microglia was used as model cells and Aβ as pathological stimuli for the study. C6 cells were cultured in glass bottom confocal dishes to attain 70% confluence. The cells were primed to activation by using 500 ng/mL of LPS in low serum media (2.5% FBS). Then microglial cells were treated with 5 μM Aβ42 alone and with NMIs (M3) for 18 h. Then the cells were fixed and probed for Iba1 marker by indirect immunofluorescence, counter stained with Phalloidin rhodamine (200 nM) for actin labeling to visualize the actin distribution and DAPI (1 μM) for labeling the nucleus. The samples were washed thrice using dPBS and subjected to Bio-AFM imaging.
The Bio-AFM studies were performed in Bioscope Resolve AFM integrated with Olympus Fluoview-3000 Confocal laser scanning microscope (Bruker). The original confocal stage was removed and replaced with the Bruker Bio-AFM stage. For the confocal images aspect ratio was fixed to 4:3 with channel size of 640×480 and 3-point calibration was done to obtain proper overlay and pixel scaling was optimized by setting 0.375 μ/pixel. Region of interest was selected in the confocal using 60× oil immersion objective (Olympus plan Apo N) and on selected region AFM probe was landed using MIROVIEW window. Peak Force Quantitative Nanomechanical Mapping (PF-QNM) in Fluid mode was used for imaging the cells wherein this mode works based on Peakforce tapping principle. From this mode, height, log DMT and adhesion force of the samples was recorded. The log DMT was calculated using Derjaguin, Muller, Toropov (DMT) model using the formula given below. Studies were performed using MLCT BIO-F probe made up of non-conductive silicon nitride, coated with reflective Au with spring constant of 0.60 N/m and tip radius of 20 nm. Images were recorded with scanning speed of 0.5 Hz with 512 samples per line. The confocal images were recorded in DAPI, Alex488 and rhodamine channels. AFM data was analyzed using NanoScope analysis software (1.9 version) and confocal images were analyzed using Image J. Ftip=4/3E*√Rd3+Fadh, where Ftip=Force on tip, Fadh=Adhesion force, R=Tip radius and d=Tip sample separation.
C6 microglial cells were used as model and Aβ as stimuli for microglial activation that mimics AD conditions. The C6 cells were primed with LPS (500 ng/mL) for 4 h followed by treatment with Aβ (5 μM) alone and with M3 (10 μM) for 18 h. The cells were stained for Iba1, actin (phalloidin-rhodamine) and nucleus (DAPI), and the samples were subjected to confocal and AFM imaging using integrated Bio-AFM instrument.

The subject of another test is IL6. Description: Western blot of IL6 in C6 microglia. Particulars: LPS 500 ng/mL, Aβ 5 μM, compound 10 μM; changes statistically insignificant. It is filed as cell-based. As for the experimental part: Western blot analysis was performed to analyse the changes in the protein levels from cell lysates. SH-SY5Y and C6 cells were cultured to 80% confluence in T25 flask, trypsinised and seed into 12 well plate. The cells were cultured for 30 h and then treated with LPS (500 ng/mL) in low serum media for 6 h. Then the cells were treated with Aβ42 (5 μM) alone and with NMIs (M3) (10 μM) for 18 h. The cells were harvested by trypsinisation and the protein was extracted in RIPA lysis buffer with protease inhibitor cocktail (1×). Briefly cells were washed with dPBS and lysed in […] of RIPA lysis buffer with gentle shaking in 4° C. for 30 min. Then the cells were centrifuged at 16000 g for 20 min and the supernatant containing protein was collected and quantified by Bradford assay. The protein lysate was subjected to SDS-PAGE (12% resolving gel) and transferred to PVDF membrane. The blot paper was blocked with 5% skim milk powder for 1 h at room temperature and then washed thrice with TBST. The blots were incubated with primary antibodies for 20 h at 4° C. The blots were washed thrice with TBST for 5 min and then incubated with anti-rabbit HRP-conjugated secondary antibodies for 1 h at room temperature. […] All the western blots were quantified by using ImageJ, data was plotted and analysed by GraphPad prism5. […]

Experimental findings from US20250179024A1, “AMYLOID AND ASSOCIATED PATHOLOGY MODULATORS AND METHODS THEREOF” (Jawaharlal Nehru Centre for Advanced Scientific Research, priority 2022, published 2025) are described below.

The structures appear in SMILES notation.

T1 sequence (P05067 672-713 limits assumed): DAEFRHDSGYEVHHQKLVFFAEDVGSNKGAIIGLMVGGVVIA

With `CN(C)c1ccc2c3c(cccc13)C(=O)N(CCc1ccc(O)c(O)c1)C2=O` [M1, 2-(3,4-dihydroxyphenethyl)-6-(dimethylamino)-1H-benzo[de]isoquinoline-1,3(2H)-dione], the oligomer inhibition at Aβ oligomers is 33%.

On to `O=C1c2cccc3c(N(Cc4ccccn4)Cc4ccccn4)ccc(c23)C(=O)N1CCc1ccc(O)c(O)c1` [M3, 6-(bis(pyridin-2-ylmethyl)amino)-2-(3,4-dihydroxyphenethyl)-1H-benzo[de]isoquinoline-1,3(2H)-dione], for which, in the test with C6 microglial cells (Aβ treated ~2.06±0.20 Pa, control ~1.38±0.19 Pa), the “log DMT modulus (cellular stiffness)” value is on record as ~1.32±0.15. In addition, the height of microglial cells in the test with C6 microglial cells (activated ~5.13±0.29, control ~2.03±0.18) is ~3.03 µm. In the test with C6 microglial cells (activated ~5.30±0.24, control 3.21±0.23), the adhesive force is on record as ~3.57±0.25 nN. In the test with C6 microglial cells (LPS 500 ng/mL, 18 h), the “Iba1 level compared to Aβ treated cells” value was “reduced significantly”, the “Iba1 localisation with actin” value is “reduced the Iba1 localisation with actin” and the “actin redistribution to the periphery of Aβ treated microglial cells” value is reported as “reduced”. The IL6 level result in the test with IL6 is on record as “reduced”.
